Laboratory results reported in patent publication US20130281528A1, “METHOD OF TREATING GASTRIC CANCER” (Niiki Pharma Acquisition Corp.2, priority 2010, published 2013).

System: human gastric cancer cell line NCI-N87
Assay: ATCC's MTT Cell Proliferation Assay
Assay type: cell-based
Details: 72 hours post-treatment, concentration that inhibits cell growth by 50%
Procedure: To test the activities of sodium trans-[tetrachlorobis(1H-indazole)ruthenate(III)], ATCC's MTT Cell Proliferation Assay® was performed using human gastric cancer cell line NCI-N87 (differentiated carcinoma). Stock cultures were allowed to grow to 70-80% confluence for this study. The anti-proliferative activity of sodium trans-[tetrachlorobis(1H-indazole)ruthenate(III)], against the indicated cell line was evaluated in vitro using the ATCC's MTT Cell Proliferation Assay (Catalog No. 30-1010K). NCI-N87 was grown using RPMI1640 (Cell Gro 10-040-CV), with 1% of 1M HEPES, 1% sodium pyruvate, 1% of 45% glucose solution, 10% of heat-inactivated FBS and 1% of pen/strep/glutamine. […] The plates were left overnight at room temperature in the dark and was read on a plate reader using SoftMax® Pro (version 5.2, Molecular Devices).
The absorbance data was analyzed as follows: Absorbance values were converted to Percent of Control and plotted against test agent concentrations for IC50 calculations using SoftMax® Pro (version 5.2, Molecular Devices). […] Percent of Control values were calculated by dividing the absorbance values for each test well by the No Drug Control average (column 11 values; cells+vehicle control) and multiplying by 100. […]

Molecule `[Cl][Ru-]([Cl])([Cl])[Cl].[Na+].c1ccc2[nH]ncc2c1.c1ccc2[nH]ncc2c1` [sodium trans-[tetrachlorobis(1H-indazole)ruthenate(III)]] has an IC50 of 3.73 µM.
